{"source": "paper PMC10180211", "about": "“Stability Analysis of the Asiatic Acid-COX-2 Complex Using 100 ns Molecular Dynamic Simulations and Its Selectivity against COX-2 as a Potential Anti-Inflammatory Candidate” (Molecules, 2023)", "molecular_target": "T1, cyclooxygenase-2 (COX-2) (Ovis aries, UniProt P79208)", "T1 construct": "gene PTGS2", "T1 sequence (P79208 17-603)": "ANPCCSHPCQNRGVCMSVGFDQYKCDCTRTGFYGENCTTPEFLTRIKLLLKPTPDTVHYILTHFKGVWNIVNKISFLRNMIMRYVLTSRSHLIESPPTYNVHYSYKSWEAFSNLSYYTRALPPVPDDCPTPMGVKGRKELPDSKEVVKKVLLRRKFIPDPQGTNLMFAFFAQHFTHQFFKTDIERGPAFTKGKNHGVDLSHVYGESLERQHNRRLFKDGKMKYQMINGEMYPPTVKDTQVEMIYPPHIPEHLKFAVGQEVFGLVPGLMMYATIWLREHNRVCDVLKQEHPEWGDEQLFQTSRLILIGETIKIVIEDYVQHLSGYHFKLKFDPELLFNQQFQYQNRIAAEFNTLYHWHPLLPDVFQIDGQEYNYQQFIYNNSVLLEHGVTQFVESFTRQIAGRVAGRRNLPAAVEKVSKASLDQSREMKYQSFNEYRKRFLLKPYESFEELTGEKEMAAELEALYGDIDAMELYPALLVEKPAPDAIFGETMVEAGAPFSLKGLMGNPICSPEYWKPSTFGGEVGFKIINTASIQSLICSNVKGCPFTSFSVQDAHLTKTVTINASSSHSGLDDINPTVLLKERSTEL", "assay": "colorimetric COX inhibitor screening assay (kit […]; TMPD oxidation at […] nm) with ovine COX-2", "type": "biochemical", "data": [{"smiles": "C[C@H]1[C@H](C)CC[C@]2(C(=O)O)CC[C@]3(C)C(=CC[C@@H]4[C@@]5(C)C[C@@H](O)[C@H](O)[C@@](C)(CO)[C@@H]5CC[C@]43C)[C@H]12", "note": "[asiatic acid, 2,3,23-trihydroxy-urs-12-ene-28-oic-acid]", "values": [{"measurement": "IC50", "result": 120, "unit": "µM"}]}]}
